Legend:
[1] = Uptake of pentyl carbamate relative to Dox, flow cytometry, with and without fetal bovine serum; type: cell-based
Experimental: Uptake of the pentyl carbamate relative to uptake of Dox was measured by flow cytometry, monitoring fluorescence of the Dox fluorophore as a measure of drug in cells. The measurements were performed over a period of 3 h in the presence and absence of fetal bovine serum, and the results are shown in FIG. 4. […] Further, the presence of 10% fetal bovine serum decreased the uptake of doxorubicin and the pentyl carbamate by about 25%. The more rapid uptake of the pentyl carbamate in the presence and absence of serum probably reflects its increased hydrophobicity relative to that of doxorubicin which is a cation at physiological pH. Increased hydrophobicity may also be the explanation for the effect of serum on the uptake of the carbamate; namely, the carbamate binds to serum proteins reducing drug uptake.

MCF-7/Adr = experiment: Growth inhibition of multidrug resistant MCF-7/Adr breast cancer cells (crystal violet); type: cell-based
Experimental: (§1) In vitro Activity. […] This cell suspension was dispensed in 200 μL aliquots (1000 cells/well) into the inside wells of 96-well tissue culture plates. Outside wells contained 200 μL of media. […] The medium was replaced with 90 μL of growth medium prior to addition of the drug. Doxaz was dissolved in DMSO at concentrations ranging from 50 μM to 1 mM. […] Serial dilutions (1:3 and 1:10) were made in sterile DMSO to yield seven solutions of decreasing drug concentration at 100× the respective working concentrations. […] Additionally, two lanes were treated with 10 μL of growth medium containing 10% sterile DMSO and one lane was treated with 90 μL of 1.5 M Tris HCl. […]
(§2) Cell growth inhibition experiments initially focused on MCF-7, MCF-7/Adr, SK-HEP-1, and Hep G2 cancer cells as well as rat cardiomyocytes as a measure of cardiotoxicity and Vero cells (green monkey kidney cells) as an additional measure of normal cell toxicity.
(§3) Activity of plasmin-activated prodrugs.
(§4) A more thorough characterization of the growth inhibition of a variety of cancer cells as well as rat cardiomyocytes by Formula IV (aFK-PABC-Doxaz) was evaluated in comparison with inhibition of growth by Doxaz, Dox and aFK-PABC-Dox. Cells were treated with drug for 3 h and colony growth was measured at 3 to 5 days when cells reached about 80% confluence. […] The breast cancer cell lines represent the multi-drug resistant (MDR) phenotype with MCF-7/Adr cells and a cell line that is transfected with the gene for urokinase plasminogen activator (uPA), the primary enzyme responsible for cleavage of plasminogen to plasmin. Rat cardiomyocytes served as a model for comparison of drug cardiotoxicity.

[2] = Hydrolytic stability of Doxaz carbamate prodrugs in aqueous media; type: physicochemical; details: pH 7.4 buffer, no cells or growth media, 24 h, ambient temperature, HPLC
SK-HEP-1 = experiment: Growth inhibition of SK-HEP-1 liver cancer cells; type: cell-based, human; details: crystal violet
Description: (§5) Cell growth inhibition experiments initially focused on MCF-7, MCF-7/Adr, SK-HEP-1, and Hep G2 cancer cells as well as rat cardiomyocytes as a measure of cardiotoxicity and Vero cells (green monkey kidney cells) as an additional measure of normal cell toxicity. […]

Hep G2 = experiment: Growth inhibition of Hep G2 liver cancer cells; type: cell-based, human; details: crystal violet
Description: as §5

SHP-77 = experiment: Growth inhibition of SHP-77 small cell lung cancer cells; type: cell-based; details: 24 h drug treatment; crystal violet
Description: (§6) SHP-77 small cell lung cancer cells were also of interest because they express modest amounts of both enzymes. Inhibition of the growth of cardiomyocytes was used as a measure of cardiotoxicity, and inhibition of the growth of Vero cells, green monkey kidney cells, was again used as another measure of toxicity to normal cells.

MCF-7 = experiment: Growth inhibition of MCF-7 sensitive breast cancer cells (colony formation, crystal violet); type: cell-based, human
Experimental: as §1, §2, §3, §4

Vero cells = experiment: Growth inhibition of Vero cells as a measure of normal cell toxicity (MTT); type: cell-based, green monkey
Description: as §2, §6

[3] = system: H9c2(2-1) rat cardiomyocytes; experiment: Growth inhibition of rat cardiomyocytes as a measure of cardiotoxicity; type: cell-based; details: 24 h drug treatment; crystal violet
Experimental: Biological activity of simple Doxazolidine carbamates. Since the prodrug carbamates were designed to be activated by carboxylesterases CES1 (hCE1) and/or CES2 (hiCE), cell lines of interest were measured for expression of the respective mRNAs using reverse transcription (RT) followed by PCR (polymerase chain reaction). Cancer cell lines investigated included SHP-77 resistant small cell lung, DU-145 prostate, MCF-7 sensitive breast, MCF-7/Adr resistant breast, SK-HEP-1 liver, and Hep G2 liver cells. As a measure of possible cardiotoxicity, H9c2(2-1) rat cardiomyocytes were also investigated. Cardiotoxicity is relevant because the ultimate product of metabolism and subsequent hydrolysis of these carbamates is doxorubicin, which is cardiotoxic. […] Additionally, the rat cardiomyocytes, H9c2(2-1), also express more CES2 than CES1.
Cell growth inhibition experiments initially focused on MCF-7, MCF-7/Adr, SK-HEP-1, and Hep G2 cancer cells as well as rat cardiomyocytes as a measure of cardiotoxicity and Vero cells (green monkey kidney cells) as an additional measure of normal cell toxicity. The butyl and pentyl carbamates inhibited the growth of MCF-7, MCF-7/Adr, and SK-HEP-1 cell lines with a 24 h drug treatment period with some selectivity for cancer cells over cardiomyocytes relative to growth inhibition by Dox as shown in Table 2. […] The relative inactivity of the ethyl carbamate may indicate that a substantial lipophilic interaction is required at the active site of the carboxylesterases to hold the Doxaz substrate.
Biological activity of Doxazolidine carbamates with self-eliminating spacer. […] SHP-77 small cell lung cancer cells were also of interest because they express modest amounts of both enzymes. Inhibition of the growth of cardiomyocytes was used as a measure of cardiotoxicity, and inhibition of the growth of Vero cells, green monkey kidney cells, was again used as another measure of toxicity to normal cells. They also show more activity against the cancer cells that express higher levels of CES1. Of particular note is the higher activity against Hep G2 cells than against SK-HEP-1 cells. […] The low toxicity of pentyl PABC-Doxaz to cardiomyocytes relative to the toxicity of Dox is encouraging and consistent with the low level of expression of CES1 in cardiomyocytes.
A more thorough characterization of the growth inhibition of a variety of cancer cells as well as rat cardiomyocytes by Formula IV (aFK-PABC-Doxaz) was evaluated in comparison with inhibition of growth by Doxaz, Dox and aFK-PABC-Dox. Cells were treated with drug for 3 h and colony growth was measured at 3 to 5 days when cells reached about 80% confluence. The cancer cells included one prostate cancer cell line (DU-145), three related breast cancer cell lines (MCF-7, MCF-7/Adr, and MCF-7 uPA), and one pancreatic cancer cell line (Mia PaCa-2). The breast cancer cell lines represent the multi-drug resistant (MDR) phenotype with MCF-7/Adr cells and a cell line that is transfected with the gene for urokinase plasminogen activator (uPA), the primary enzyme responsible for cleavage of plasminogen to plasmin. Rat cardiomyocytes served as a model for comparison of drug cardiotoxicity. Growth inhibition was also measured with added plasmin. aFK-PABC-Doxaz inhibited the growth of most of the cancer cells 0.5 log or more better than did aFK-PABA-Dox. Although not as dramatic, this differential response paralleled the differential response between Doxaz and Dox which is approximately two logs except for the MDR expressing, MCF-7/Adr cells which show more than three logs differential response. […] Addition of 0.01 unit/mL of plasmin has no effect on the activity of Dox but increases the activity of both aFK-PABC-Doxaz and aFK-PABC-Dox, in some cases by more than a log. Addition of 0.01 unit/mL plasminogen increases the activity of aFK-PABC-Doxaz on average by 0.3 log. […]

DU-145 = experiment: Growth inhibition of DU-145 prostate cancer cells; type: cell-based
Experimental: as §1, §6
as §4, with “Cells were treated with drug for 3 h and colony growth was measured at 3 to 5 days when cells reached about 80% confluence.” left out

[4] = buffer; cited from earlier work
cancer cells = details: background statement; cited from earlier work
αvβ3 integrin = αvβ3 integrin (Homo sapiens, UniProt P05106+P06756); details: cited from earlier work
αvβ3 integrin, sequence (P06756 31-889 limits assumed): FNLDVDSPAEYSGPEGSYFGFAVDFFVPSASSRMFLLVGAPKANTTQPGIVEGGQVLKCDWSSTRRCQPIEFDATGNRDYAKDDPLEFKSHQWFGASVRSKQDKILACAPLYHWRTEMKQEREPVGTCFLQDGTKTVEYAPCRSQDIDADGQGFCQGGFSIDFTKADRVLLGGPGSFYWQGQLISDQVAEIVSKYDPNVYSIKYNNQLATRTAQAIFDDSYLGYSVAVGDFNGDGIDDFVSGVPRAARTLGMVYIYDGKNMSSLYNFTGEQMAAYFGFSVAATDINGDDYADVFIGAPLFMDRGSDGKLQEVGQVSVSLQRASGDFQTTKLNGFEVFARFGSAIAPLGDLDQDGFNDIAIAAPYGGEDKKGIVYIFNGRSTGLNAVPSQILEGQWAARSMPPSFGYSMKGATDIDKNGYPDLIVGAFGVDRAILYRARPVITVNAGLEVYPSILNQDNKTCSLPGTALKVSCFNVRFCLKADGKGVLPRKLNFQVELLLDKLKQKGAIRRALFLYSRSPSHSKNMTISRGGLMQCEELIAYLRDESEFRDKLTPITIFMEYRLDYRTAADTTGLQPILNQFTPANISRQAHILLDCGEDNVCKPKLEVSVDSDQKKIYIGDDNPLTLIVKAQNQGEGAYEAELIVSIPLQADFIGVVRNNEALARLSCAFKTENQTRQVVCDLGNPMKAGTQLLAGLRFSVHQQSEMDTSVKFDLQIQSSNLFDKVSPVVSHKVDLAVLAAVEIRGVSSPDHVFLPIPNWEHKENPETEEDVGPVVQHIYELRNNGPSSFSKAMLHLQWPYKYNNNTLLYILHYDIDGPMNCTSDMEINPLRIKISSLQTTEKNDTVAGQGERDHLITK
αvβ3 integrin, sequence (P06756 891-1048 partner limits assumed): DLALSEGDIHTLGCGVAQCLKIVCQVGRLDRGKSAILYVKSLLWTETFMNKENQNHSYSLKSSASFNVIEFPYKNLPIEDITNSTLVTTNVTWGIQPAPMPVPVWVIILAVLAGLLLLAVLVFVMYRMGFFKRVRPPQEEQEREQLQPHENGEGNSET
αvβ3 integrin, sequence (P05106 27-788): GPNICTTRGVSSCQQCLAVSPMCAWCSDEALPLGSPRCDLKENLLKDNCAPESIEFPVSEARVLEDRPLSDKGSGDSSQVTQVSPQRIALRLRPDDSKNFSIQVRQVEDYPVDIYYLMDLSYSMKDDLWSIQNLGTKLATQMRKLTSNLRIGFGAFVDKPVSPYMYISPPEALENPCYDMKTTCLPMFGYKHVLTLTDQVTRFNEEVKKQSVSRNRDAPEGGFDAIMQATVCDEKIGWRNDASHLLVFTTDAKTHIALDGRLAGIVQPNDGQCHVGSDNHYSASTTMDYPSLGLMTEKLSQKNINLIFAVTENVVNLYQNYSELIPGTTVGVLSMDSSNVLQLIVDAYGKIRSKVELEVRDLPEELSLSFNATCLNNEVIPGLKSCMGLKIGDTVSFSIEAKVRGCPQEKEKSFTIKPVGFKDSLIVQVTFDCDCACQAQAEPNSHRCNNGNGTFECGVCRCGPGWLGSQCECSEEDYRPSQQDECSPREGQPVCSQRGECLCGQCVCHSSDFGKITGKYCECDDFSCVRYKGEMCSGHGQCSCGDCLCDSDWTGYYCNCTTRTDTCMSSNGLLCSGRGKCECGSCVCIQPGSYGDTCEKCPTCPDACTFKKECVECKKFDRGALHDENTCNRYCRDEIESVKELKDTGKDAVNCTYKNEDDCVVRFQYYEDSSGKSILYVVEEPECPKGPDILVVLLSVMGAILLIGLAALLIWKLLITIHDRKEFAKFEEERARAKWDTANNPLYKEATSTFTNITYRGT

[5] = 24 h drug treatment, crystal violet

CCCCCOC(=O)N1COC2C(C)OC(OC3CC(O)(C(=O)CO)Cc4c(O)c5c(c(O)c43)C(=O)c3c(OC)cccc3C5=O)CC21 (stereo not drawn) [Doxaz Pentyl Carbamate]
Decrease of uptake by 10% fetal bovine serum ([1]; 10% fetal bovine serum, flow cytometry, 3 h): about 25% | Uptake relative to Dox ([1]; flow cytometry over 3 h, with and without serum): taken up at a higher level and more rapidly than Dox | Growth inhibition IC50, MCF-7/Adr, 24 h (MCF-7/Adr; [5]): −6.0 ± 0.09 log of the molar concentration | Stability to hydrolysis in buffer [2]: stable to hydrolysis | Growth inhibition IC50, SK-HEP-1, 3 h (SK-HEP-1; 3 h drug treatment): >−6 log of the molar concentration | Growth inhibition IC50, SK-HEP-1, 24 h (SK-HEP-1; 24 h drug treatment): −6.7 ± 0.1 log of the molar concentration | Growth inhibition IC50, Hep G2, 3 h (Hep G2; 3 h drug treatment): >−6 log of the molar concentration | Growth inhibition IC50, Hep G2, 24 h (Hep G2; 24 h drug treatment): −6.5 ± 0.3 log of the molar concentration | Cell growth inhibition IC50, SHP-77 (SHP-77): −6.3 ± 0.3 log of molar concentrations | Growth inhibition IC50, MCF-7, 3 h (MCF-7; 3 h drug treatment, crystal violet): >−6 log of the molar concentration | Growth inhibition IC50, MCF-7, 24 h (MCF-7; [5]): −6.1 ± 0.03 log of the molar concentration | Growth inhibition IC50, Vero, 3 h (Vero cells; 3 h drug treatment): −5.4 ± 0.1 log of the molar concentration | Growth inhibition IC50, Vero, 24 h (Vero cells; 24 h drug treatment): −5.3 ± 0.01 log of the molar concentration | Growth inhibition IC50, H9c2(2-1), 24 h [3]: −6.6 ± 0.1 log of the molar concentration | Cell growth inhibition IC50, DU-145 (DU-145; [5]): −6.0 ± 0.04 log of molar concentrations

COc1cccc2c1C(=O)c1c(O)c3c(c(O)c1C2=O)C[C@@](O)(C(=O)CO)C[C@@H]3O[C@H]1C[C@H]2C(OCN3CN2CO[C@H]2[C@@H](C)O[C@@H](O[C@H]4C[C@](O)(C(=O)CO)Cc5c(O)c6c(c(O)c54)C(=O)c4c(OC)cccc4C6=O)C[C@@H]23)[C@H](C)O1 (stereo partly drawn) [EpiF, Epidoxoform, reference compound]
IC50 (MCF-7/Adr; Homo sapiens, NCI/ADR-RES, 3 h, read-out: IC50 MCF-7/Adr): 70 nM | Half-life, stability in water with respect to loss of formaldehyde [4]: 2 h | Less active than DoxF in cancer cell growth inhibition (cancer cells): 50 fold | IC50 (MCF-7; Homo sapiens, MCF7, 3 h, read-out: IC50 MCF-7): 65 nM | IC50 (DU-145; Homo sapiens, DU-145, 3 h, read-out: IC50 DU-145): 26 ± 5 nM

Lys-Arg-Gly-Asp-phe (KRGD; C-terminal D-Phe; printed: Lys-Arg-Gly-Asp-) [KRGDf]
Specificity for αvβ3 over αIIbβ3 platelet receptor (αvβ3 integrin): 1000 fold
